From patent US20250320193A1, “OXOISOINDOLINYL SUBSTITUTED PIPERIDINEDIONE DERIVATIVE AND USE THEREOF” (GLUETACS THERAPEUTICS (SHANGHAI) CO., LTD., priority 2022, published 2025)

Columns and labels:
[1] = molecular target: human Cereblon WT GST-tagged protein (Homo sapiens (Human), UniProt Q96SW2); experiment: CRBN-binding affinity, HTRF (CEREBLON BINDING kit, CISBIO); details: HTRF inhibitory activity
How it was run: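 HTRF competition format: test compound displaces Thalidomide-Red from GST-tagged human Cereblon WT, detected with a Eu-labelled anti-GST antibody. Percent CRBN binding inhibition was derived from the 620 nm signal, normalized to solvent-control and protein-free blank wells.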

[2] = molecular target: IKZF1 (Homo sapiens (Human), UniProt Q13422+Q96SW2); experiment: Western blot, substrate protein expression in hPBMC: IKZF1; assay type: cell-based; details: hPBMC, compound 500 nM, 24 hours, Western blot
IKZF1, sequence (Q13422 whole entry): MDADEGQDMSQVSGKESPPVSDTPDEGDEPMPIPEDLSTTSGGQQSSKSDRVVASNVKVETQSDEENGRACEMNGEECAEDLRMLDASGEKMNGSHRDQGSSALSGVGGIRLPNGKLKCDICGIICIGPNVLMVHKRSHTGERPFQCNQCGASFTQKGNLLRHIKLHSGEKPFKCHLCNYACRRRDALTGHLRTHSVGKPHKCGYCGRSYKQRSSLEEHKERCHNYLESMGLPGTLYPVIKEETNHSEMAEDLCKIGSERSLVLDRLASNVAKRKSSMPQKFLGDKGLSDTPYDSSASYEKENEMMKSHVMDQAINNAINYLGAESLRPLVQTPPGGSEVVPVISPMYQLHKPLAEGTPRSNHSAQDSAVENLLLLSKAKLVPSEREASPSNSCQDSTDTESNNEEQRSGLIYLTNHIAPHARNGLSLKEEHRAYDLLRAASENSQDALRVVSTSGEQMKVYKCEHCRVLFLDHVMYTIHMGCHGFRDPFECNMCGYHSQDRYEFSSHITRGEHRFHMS
IKZF1, sequence (Q96SW2 whole entry): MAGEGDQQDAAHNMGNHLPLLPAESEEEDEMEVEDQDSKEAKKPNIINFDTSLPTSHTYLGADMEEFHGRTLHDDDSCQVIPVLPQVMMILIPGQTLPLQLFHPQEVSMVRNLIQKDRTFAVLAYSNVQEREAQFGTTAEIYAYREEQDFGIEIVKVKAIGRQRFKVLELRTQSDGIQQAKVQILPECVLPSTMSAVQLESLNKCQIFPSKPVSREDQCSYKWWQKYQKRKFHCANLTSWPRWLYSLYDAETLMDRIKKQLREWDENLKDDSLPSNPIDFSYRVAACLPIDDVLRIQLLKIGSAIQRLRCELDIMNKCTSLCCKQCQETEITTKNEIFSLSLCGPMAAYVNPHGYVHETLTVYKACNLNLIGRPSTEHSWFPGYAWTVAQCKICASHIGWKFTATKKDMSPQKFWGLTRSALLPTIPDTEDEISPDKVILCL
IKZF1, sequence (Q16531 whole entry partner): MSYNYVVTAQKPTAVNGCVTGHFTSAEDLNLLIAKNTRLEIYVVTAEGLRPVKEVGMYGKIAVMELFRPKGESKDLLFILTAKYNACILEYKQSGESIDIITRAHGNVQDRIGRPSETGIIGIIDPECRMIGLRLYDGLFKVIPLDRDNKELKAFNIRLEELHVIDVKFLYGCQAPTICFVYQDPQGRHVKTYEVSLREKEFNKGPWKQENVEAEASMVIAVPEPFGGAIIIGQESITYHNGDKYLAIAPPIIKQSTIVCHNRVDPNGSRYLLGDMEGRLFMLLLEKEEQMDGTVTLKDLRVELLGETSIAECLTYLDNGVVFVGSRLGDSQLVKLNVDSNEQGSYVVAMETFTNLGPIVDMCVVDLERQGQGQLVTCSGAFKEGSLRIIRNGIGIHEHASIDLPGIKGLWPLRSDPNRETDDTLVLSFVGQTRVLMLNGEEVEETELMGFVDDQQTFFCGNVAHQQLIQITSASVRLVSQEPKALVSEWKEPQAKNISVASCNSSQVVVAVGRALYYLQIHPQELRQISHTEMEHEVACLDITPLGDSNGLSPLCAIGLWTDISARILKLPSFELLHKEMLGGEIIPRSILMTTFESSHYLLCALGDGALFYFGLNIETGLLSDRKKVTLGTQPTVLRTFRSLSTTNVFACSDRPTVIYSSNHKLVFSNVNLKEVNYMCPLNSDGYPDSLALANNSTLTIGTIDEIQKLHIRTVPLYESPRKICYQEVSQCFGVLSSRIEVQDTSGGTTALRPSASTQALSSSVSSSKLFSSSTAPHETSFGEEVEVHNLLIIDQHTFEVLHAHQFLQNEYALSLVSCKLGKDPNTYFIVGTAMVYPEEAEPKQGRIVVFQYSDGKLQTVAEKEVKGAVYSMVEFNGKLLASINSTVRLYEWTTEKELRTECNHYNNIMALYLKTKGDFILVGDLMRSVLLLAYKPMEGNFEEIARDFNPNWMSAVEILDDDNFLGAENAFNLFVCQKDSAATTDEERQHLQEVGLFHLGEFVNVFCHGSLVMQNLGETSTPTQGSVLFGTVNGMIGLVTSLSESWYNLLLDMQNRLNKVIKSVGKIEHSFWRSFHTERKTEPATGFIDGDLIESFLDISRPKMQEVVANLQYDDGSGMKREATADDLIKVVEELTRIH
How it was run: (§1)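 hPBMC, 1×10^6 cells/mL, 24 h compound exposure; RIPA lysis, BCA protein assay, SDS-PAGE, NC membrane immunoblot. Densitometry vs internal control → % protein remaining; degradation % = 100% − remaining; DC50 = conc. at 50% of DMSO band signal.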

[3] = molecular target: IKZF3 (Homo sapiens (Human), UniProt Q96SW2+Q9UKT9); experiment: Western blot, substrate protein expression in hPBMC: IKZF3; assay type: cell-based; details: hPBMC, compound 500 nM, 24 hours, Western blot
IKZF3, sequence (Q9UKT9 whole entry): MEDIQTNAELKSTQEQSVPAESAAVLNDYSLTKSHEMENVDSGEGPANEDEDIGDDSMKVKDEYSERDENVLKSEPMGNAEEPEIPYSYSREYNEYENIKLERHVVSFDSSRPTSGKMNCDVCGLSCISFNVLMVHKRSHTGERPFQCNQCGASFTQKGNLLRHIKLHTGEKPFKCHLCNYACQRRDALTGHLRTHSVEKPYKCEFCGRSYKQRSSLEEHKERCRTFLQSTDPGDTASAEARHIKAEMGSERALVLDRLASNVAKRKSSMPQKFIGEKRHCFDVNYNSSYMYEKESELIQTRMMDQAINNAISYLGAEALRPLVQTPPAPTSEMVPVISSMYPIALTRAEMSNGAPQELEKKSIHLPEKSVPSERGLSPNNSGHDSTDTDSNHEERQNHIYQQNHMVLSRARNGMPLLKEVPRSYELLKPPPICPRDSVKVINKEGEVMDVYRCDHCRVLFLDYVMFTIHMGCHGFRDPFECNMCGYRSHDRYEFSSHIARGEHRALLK
IKZF3, sequence (Q96SW2 whole entry): as the sequence (Q96SW2 whole entry) above
IKZF3, sequence (Q16531 whole entry partner): as the sequence (Q16531 whole entry partner) above
How it was run: as §1

[4] = molecular target: GSPT1 (Homo sapiens (Human), UniProt P15170+Q96SW2); experiment: Western blot, substrate protein expression in hPBMC: GSPT1; assay type: cell-based; details: hPBMC, compound 500 nM, 24 hours, Western blot
GSPT1, sequence (P15170 whole entry): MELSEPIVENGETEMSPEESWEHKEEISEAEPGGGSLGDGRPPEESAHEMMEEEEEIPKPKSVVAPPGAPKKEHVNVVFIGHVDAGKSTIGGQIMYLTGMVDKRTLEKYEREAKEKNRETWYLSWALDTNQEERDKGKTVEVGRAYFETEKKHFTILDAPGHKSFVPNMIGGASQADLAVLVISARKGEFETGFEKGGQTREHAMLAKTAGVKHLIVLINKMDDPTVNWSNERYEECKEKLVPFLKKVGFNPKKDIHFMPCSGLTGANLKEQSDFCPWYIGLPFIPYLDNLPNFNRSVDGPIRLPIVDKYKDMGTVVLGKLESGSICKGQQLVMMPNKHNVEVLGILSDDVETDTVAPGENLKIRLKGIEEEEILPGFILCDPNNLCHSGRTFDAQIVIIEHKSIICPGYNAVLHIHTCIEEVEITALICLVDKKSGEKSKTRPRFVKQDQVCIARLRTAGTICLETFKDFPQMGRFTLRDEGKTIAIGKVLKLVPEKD
GSPT1, sequence (Q96SW2 whole entry): as the sequence (Q96SW2 whole entry) above
GSPT1, sequence (Q16531 whole entry partner): as the sequence (Q16531 whole entry partner) above
How it was run: as §1

human Cereblon WT GST-tagged protein, sequence (Q96SW2 whole entry): as the sequence (Q96SW2 whole entry) above

SMILES	IC50 [1] [nM]	substrate protein remaining % IKZF1 [2]	substrate protein remaining % IKZF3 [3]	substrate protein remaining % GSPT1 [4]
O=C1CCC(N2Cc3c(ccc(CN4CCN(C(c5ccccn5)c5ccccn5)CC4)c3F)C2=O)C(=O)N1 (centres unmarked) [GT-05713, 3-(5-((4-(di(pyridin-2-yl)methyl)piperazin-1-yl)methyl)-4-fluoro-1-oxoisoindolin-2-yl)piperidine-2,6-dione]	500 to 1000	B (B represents substrate protein remaining % > 50%)	B (B represents substrate protein remaining % > 50%)	A (A represents 0% ≤ substrate protein remaining % ≤ 50%)
O=C1CCC(N2Cc3c(ccc(CN4CCN(C(c5ccccc5)c5ccccc5)CC4C(F)(F)F)c3F)C2=O)C(=O)N1 (centres unmarked) [GT-06096, 3-(5-((4-benzhydryl-2-(trifluoromethyl)piperazin-1-yl)methyl)-4-fluoro-1-oxoisoindolin-2-yl)piperidine-2,6-dione]	500 to 1000	B (B represents substrate protein remaining % > 50%)	A (A represents 0% ≤ substrate protein remaining % ≤ 50%)	A (A represents 0% ≤ substrate protein remaining % ≤ 50%)
O=C1CCC(N2Cc3c(CN4CCN(C(c5ccc(F)cc5)c5ccc(F)cc5)CC4)cccc3C2=O)C(=O)N1 (centres unmarked) [GT-03647, 3-(4-((4-(bis(4-fluorophenyl)methyl)piperazin-1-yl)methyl)-1-oxoisoindolin-2-yl)piperidine-2,6-dione]	500 to 1000	B (B represents substrate protein remaining % > 50%)	B (B represents substrate protein remaining % > 50%)	A (A represents 0% ≤ substrate protein remaining % ≤ 50%)
O=C1CCC(N2Cc3cc(CN4CCN(C(c5ccc(F)cc5)c5ccc(F)cc5)CC4)cc(F)c3C2=O)C(=O)N1 (centres unmarked) [GT-03565, 3-(5-((4-(bis(4-fluorophenyl)methyl)piperazin-1-yl)methyl)-7-fluoro-1-oxoisoindolin-2-yl)piperidine-2,6-dione]	< 500	B (B represents substrate protein remaining % > 50%)	B (B represents substrate protein remaining % > 50%)	A (A represents 0% ≤ substrate protein remaining % ≤ 50%)
CC1(C)CN(C(=O)c2ccc3c(c2)CN(C2CCC(=O)NC2=O)C3=O)CCN1C(c1ccccc1)c1ccccc1 (centres unmarked) [GT-06061, 3-(5-(4-benzhydryl-3,3-dimethylpiperazine-1-carbonyl)-1-oxoisoindolin-2-yl)piperidine-2,6-dione]	500 to 1000	B (B represents substrate protein remaining % > 50%)	B (B represents substrate protein remaining % > 50%)	A (A represents 0% ≤ substrate protein remaining % ≤ 50%)
O=C1CCC(N2Cc3c(ccc(CN4CCCN(C(c5ccccc5)c5ccccc5)CC4)c3F)C2=O)C(=O)N1 (centres unmarked) [GT-04164, 3-(5-((4-benzhydryl-1,4-diazepan-1-yl)methyl)-4-fluoro-1-oxoisoindolin-2-yl)piperidine-2,6-dione]	500 to 1000	B (B represents substrate protein remaining % > 50%)	B (B represents substrate protein remaining % > 50%)	A (A represents 0% ≤ substrate protein remaining % ≤ 50%)
O=C1CCC(N2Cc3cc(CN4C5CC4CN(C(c4ccccc4)c4ccccc4)C5)c(F)cc3C2=O)C(=O)N1 (centres unmarked) [GT-05737, 3-(5-((3-benzhydryl-3,6-diazabicyclo[3.1.1]heptan-6-yl)methyl)-6-fluoro-1-oxoisoindolin-2-yl)piperidine-2,6-dione]	500 to 1000	B (B represents substrate protein remaining % > 50%)	B (B represents substrate protein remaining % > 50%)	A (A represents 0% ≤ substrate protein remaining % ≤ 50%)
O=C1CCC(N2Cc3cc(C(=O)N4CCN(C(c5ccc(F)cc5)c5ccc(F)cc5)CC4)ccc3C2=O)C(=O)N1 (centres unmarked) [GT-05881, 3-(5-(4-(bis(4-fluorophenyl)methyl)piperazine-1-carbonyl)-1-oxoisoindolin-2-yl)piperidine-2,6-dione]	500 to 1000	B (B represents substrate protein remaining % > 50%)	B (B represents substrate protein remaining % > 50%)	A (A represents 0% ≤ substrate protein remaining % ≤ 50%)
O=C1CCC(N2Cc3cc(C4CCN(C(c5ccccc5)c5ccccc5)CC4)ccc3C2=O)C(=O)N1 (centres unmarked) [GT-05868, 3-(5-(1-benzhydrylpiperidin-4-yl)-1-oxoisoindolin-2-yl)piperidine-2,6-dione]	500 to 1000	A (A represents 0% ≤ substrate protein remaining % ≤ 50%)	A (A represents 0% ≤ substrate protein remaining % ≤ 50%)	A (A represents 0% ≤ substrate protein remaining % ≤ 50%)
CC1CN(C(c2ccccc2)c2ccccc2)CC(C)N1Cc1ccc2c(c1F)CN(C1CCC(=O)NC1=O)C2=O (centres unmarked) [GT-03726, 3-(5-((4-benzhydryl-2,6-dimethylpiperazin-1-yl)methyl)-4-fluoro-1-oxoisoindolin-2-yl)piperidine-2,6-dione]	< 500	B (B represents substrate protein remaining % > 50%)	B (B represents substrate protein remaining % > 50%)	A (A represents 0% ≤ substrate protein remaining % ≤ 50%)
O=C1CCC(N2Cc3c(C(=O)N4CCN(C(c5ccc(F)cc5)c5ccc(F)cc5)CC4)cccc3C2=O)C(=O)N1 (centres unmarked) [GT-05930, 3-(4-(4-(bis(4-fluorophenyl)methyl)piperazine-1-carbonyl)-1-oxoisoindolin-2-yl)piperidine-2,6-dione]	< 500	B (B represents substrate protein remaining % > 50%)	B (B represents substrate protein remaining % > 50%)	A (A represents 0% ≤ substrate protein remaining % ≤ 50%)
O=C1CCC(N2Cc3cc(CN4CCN(C(c5ccccn5)c5ccccn5)CC4)c(F)cc3C2=O)C(=O)N1 (centres unmarked) [GT-04384, 3-(5-((4-(di(pyridin-2-yl)methyl)piperazin-1-yl)methyl)-6-fluoro-1-oxoisoindolin-2-yl)piperidine-2,6-dione]	500 to 1000	B (B represents substrate protein remaining % > 50%)	B (B represents substrate protein remaining % > 50%)	A (A represents 0% ≤ substrate protein remaining % ≤ 50%)
O=C1CCC(N2Cc3cc(CC4CN(C(c5ccccc5)c5ccccc5)C4)ccc3C2=O)C(=O)N1 (centres unmarked) [GT-05859, 3-(5-((1-benzhydrylazetidin-3-yl)methyl)-1-oxoisoindolin-2-yl)piperidine-2,6-dione]	< 500	A (A represents 0% ≤ substrate protein remaining % ≤ 50%)	B (B represents substrate protein remaining % > 50%)	A (A represents 0% ≤ substrate protein remaining % ≤ 50%)
O=C1CCC(N2Cc3cc(C(=O)N4CCC5(CC4)CCN(C(c4ccccc4)c4ccccc4)CC5)ccc3C2=O)C(=O)N1 (centres unmarked) [GT-06065, 3-(5-(9-benzhydryl-3,9-diazaspiro[5.5]undecane-3-carbonyl)-1-oxoisoindolin-2-yl)piperidine-2,6-dione]	< 500	B (B represents substrate protein remaining % > 50%)	B (B represents substrate protein remaining % > 50%)	A (A represents 0% ≤ substrate protein remaining % ≤ 50%)
O=C1CCC(N2Cc3cc(CN4C5CC4CN(C(c4ccccc4)c4ccccc4)C5)cc(F)c3C2=O)C(=O)N1 (centres unmarked) [GT-03575, 3-(5-((3-benzhydryl-3,6-diazabicyclo[3.1.1]heptan-6-yl)methyl)-7-fluoro-1-oxoisoindolin-2-yl)piperidine-2,6-dione]	500 to 1000	B (B represents substrate protein remaining % > 50%)	B (B represents substrate protein remaining % > 50%)	A (A represents 0% ≤ substrate protein remaining % ≤ 50%)
O=C1CCC(N2Cc3c(CN4CC5CN(C(c6ccccc6)c6ccccc6)CC5C4)cccc3C2=O)C(=O)N1 (centres unmarked) [GT-06052, 3-(4-((5-benzhydrylhexahydropyrrolo[3,4-c]pyrrol-2 (1H)-yl)methyl)-1-oxoisoindolin-2-yl)piperidine-2,6-dione]	< 500	B (B represents substrate protein remaining % > 50%)	B (B represents substrate protein remaining % > 50%)	A (A represents 0% ≤ substrate protein remaining % ≤ 50%)
O=C1CCC(N2Cc3cc(CN4CCN(C(c5ccccc5)c5ccccc5)CC4C(F)(F)F)c(F)cc3C2=O)C(=O)N1 (centres unmarked) [GT-06097, 3-(5-((4-benzhydryl-2-(trifluoromethyl)piperazin-1-yl)methyl)-6-fluoro-1-oxoisoindolin-2-yl)piperidine-2,6-dione]	500 to 1000	B (B represents substrate protein remaining % > 50%)	B (B represents substrate protein remaining % > 50%)	A (A represents 0% ≤ substrate protein remaining % ≤ 50%)
